Laboratory results from the supplement of paper PMC10307832.

Columns and labels:
Test in all cases: relative viability (nuclei count vs DMSO), 5 days (fraction); higher = more cells survive
[1] = compound: C1=CC(=CC=C1C2=CC(=C(S2)NC(=O)N)C(=O)N)F [TPCA-1] + COc1cccc2cc(-c3nc([C@H]4CC[C@H](C(=O)O)CC4)n4ncnc(N)c34)[nH]c12 [OSI-027] (partner 0.5 µM)
Method in brief: (§1)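 The day after seeding in 1536-well plates, lung cancer cell lines were treated by pin tool with a single drug, or with a fixed anchor-drug dose together with five library-drug doses (not always all listed) in √10 steps. After 5 days, a combined fix-and-stain solution (final 0.05% Triton X-100, 1% formaldehyde, 1 ug/ml Hoechst) was added. Nuclei counted on 4× images gave relative viability as treated counts over vehicle counts, reported as the median of duplicate plates.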

[2] = compound: C1/C(=C\C2=CC=CS2)/C(=O)/C(=C/C3=CC=CS3)/C1 + Nc1ncn([C@H]2C[C@H](O)[C@@H](CO)O2)c(=O)n1 [Decitabine] (partner 2 µM)
Method in brief: as §1

[3] = compound: C[C@]12O[C@H](C[C@]1(O)CO)n1c3ccccc3c3c4c(c5c6ccccc6n2c5c31)CNC4=O [Lestaurtinib] + COc1cc2c(Oc3ccc(NC(=O)C4(C(=O)Nc5ccc(F)cc5)CC4)cc3F)ccnc2cc1OCCCN1CCOCC1 [Foretinib] (partner 0.25 µM)
Method in brief: as §1

[4] = compound: C1/C(=C\C2=CC=CS2)/C(=O)/C(=C/C3=CC=CS3)/C1 + C[C@]1(O)C[C@@H](c2nc(-c3ccc4ccc(-c5ccccc5)nc4c3)c3c(N)nccn32)C1 [Linsitinib] (partner 1 µM)
Method in brief: as §1

## UMC-11
[1]; first compound 0.04 µM
  relative viability: 0.536
[1]; first compound 0.1265 µM
  relative viability: 0.337
[1]; first compound 0.4 µM
  relative viability: 0.466
[1]; first compound 1.265 µM
  relative viability: 0.4
[1]; first compound 4 µM
  relative viability: 0.234
[2]; first compound 0.2 µM
  relative viability: 0.752
[2]; first compound 0.6325 µM
  relative viability: 0.653
[2]; first compound 2 µM
  relative viability: 0.637
[2]; first compound 6.325 µM
  relative viability: 0.513
[2]; first compound 20 µM
  relative viability: 0.515
[3]; first compound 0.005 µM
  relative viability: 1.03
[3]; first compound 0.01581 µM
  relative viability: 0.891
[3]; first compound 0.05 µM
  relative viability: 0.46
[3]; first compound 0.1581 µM
  relative viability: 0.273
[3]; first compound 0.5 µM
  relative viability: 0.175
[4]; first compound 0.2 µM
  relative viability: 1.02
[4]; first compound 0.6325 µM
  relative viability: 1.07
[4]; first compound 2 µM
  relative viability: 1.03
[4]; first compound 20 µM
  relative viability: 1
